Laboratory results reported in BindingDB's records for patent US20250282782 (Genzyme, 2025).

target: T1, Tyrosine-protein phosphatase non-receptor type 11 (Homo sapiens, UniProt Q06124); assay: Inhibition of SHP2 Phosphatase Activity Assay
T1 sequence (Q06124 whole entry): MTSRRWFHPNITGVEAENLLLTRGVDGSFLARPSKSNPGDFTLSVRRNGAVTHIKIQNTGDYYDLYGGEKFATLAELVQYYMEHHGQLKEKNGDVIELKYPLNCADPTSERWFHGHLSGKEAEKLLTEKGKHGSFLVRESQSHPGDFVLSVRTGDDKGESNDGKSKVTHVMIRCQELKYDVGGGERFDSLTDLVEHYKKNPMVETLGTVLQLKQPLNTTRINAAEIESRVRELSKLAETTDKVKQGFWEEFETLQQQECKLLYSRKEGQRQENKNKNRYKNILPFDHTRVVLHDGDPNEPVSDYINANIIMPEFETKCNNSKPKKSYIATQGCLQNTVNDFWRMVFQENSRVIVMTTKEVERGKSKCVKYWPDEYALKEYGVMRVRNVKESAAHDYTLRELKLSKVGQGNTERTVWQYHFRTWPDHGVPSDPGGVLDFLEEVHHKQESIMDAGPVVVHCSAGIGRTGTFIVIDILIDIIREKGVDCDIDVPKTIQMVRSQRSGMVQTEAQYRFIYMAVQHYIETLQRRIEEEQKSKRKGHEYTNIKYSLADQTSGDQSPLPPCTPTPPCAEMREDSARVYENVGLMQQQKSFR
Procedure: Inhibition of SHP2 phosphatase activity was evaluated using human recombinant 6His-Nterm (SEQ ID NO: 1) SHP2 full-length (Thr2-Arg593, R&D system), NsCs bi-phosphorylated activating peptide (NH2-LN(pY)AQLWHA(PEG8)LTI(pY)ATIRRF-Amide.acetate (SEQ ID NO: 2), Thermofischer Scientific) and DiFMUP as surrogate phosphatase substrate (Molecular Probes). All reactions were performed at room temperature in 384-well black polystyrene non-binding plate (Corning) with the assay buffer (50 mM HEPES-NaOH pH 7.2, 100 mM NaCl, 0.5 mM EDTA, 0.001% Brij35 including 0.02% BSA and 1 mM DTT added extemporaneously). SHP2 was pre-incubated at least 10 min with the activating peptide (0.2 nM and 100 nM, respectively). 10 μL of this mixture was added to the assay plate, that already contained 15 nL of the compound (1000-0.05 nM). After 30 min pre-incubation, the enzymatic reaction was initiated by the addition of 5 μL DiFMUP in assay buffer without BSA (20 μM). The reaction was stopped by the addition of 15 μL sodium pervanadate solution (100 μM) after 45 min incubation. The fluorescence signal was measured at excitation and emission wavelengths of 350 nm and 450 nm, respectively, using a Pherastar instrument (BMG-LabTech).

SMILES	IC50 [nM]
Cc1nc(N2CCC3(CC2)Cc2ncccc2[C@H]3N)c2ccnn2c1-c1cc2c(cc1F)OCCO2 [US20250282782, Compound 58]	35
Cc1cc2c(cn1)CC1(CCN(c3nc(C)c(-c4cnn(C)c4C)n4nccc34)CC1)[C@@H]2N [US20250282782, Compound 113]	28
Cc1nc(N2CCC3(CC2)Cc2ncsc2[C@H]3N)c2ccnn2c1-c1cnn(C)c1C [US20250282782, Compound 72]	27
Cc1nc(N2CCC3(CC2)Cc2scnc2[C@H]3N)c2ccnn2c1-c1cnn(C)c1C [US20250282782, Compound 67]	115
Cc1nc(N2CCC3(CC2)Cc2scnc2[C@H]3N)c2ccnn2c1-c1ccccc1F [US20250282782, Compound 66]	22
Cc1ccc(F)c(-c2c(C)nc(N3CCC4(CC3)Cc3ncccc3[C@H]4N)c3ccnn23)c1 [US20250282782, Compound 205]	11
